According to article PMC4522657, “Identification of a DYRK1A Inhibitor that Induces Degradation of the Target Kinase using Co-chaperone CDC37 fused with Luciferase nanoKAZ” (Scientific Reports, 2015):

Tests used:
[1] = target: T1, interaction of CDC37-nanoKAZ with 3xFLAG-DYRK1A (Y319F/Y321F) (Homo sapiens, UniProt Q13627, Y319F/Y321F); assay: CDC37-nanoKAZ binding assay (ELISA of the CDC37-nanoKAZ interaction) in 293T cells; format: cell-based; details: for antagonism of the CDC37-nanoKAZ interaction: result in words, Fig. 6c; for EC50: 293T cells stably expressing CDC37-nanoKAZ, treated one hour, read-out: EC50, decrease of relative luminescence intensity
T1 construct: F2A peptide linking to EGFP (2A skipping releases EGFP; a 2A remnant may stay on DYRK1A) (C); expressed in transfected cells; host or cells: 293T cells stably expressing CDC37-nanoKAZ, transiently transfected with pcDNA5/FRT/TO 3xFLAG-DYRK1A (Y319F/Y321F)
Experimental: The cells were then treated with the indicated concentrations of small molecules for one hour. Cell lysates were added to FLAG antibody-coated 96-well plates and luminescence intensities were measured. The amount of bound 3xFLAG-DYRK1A was measured using a HRP-conjugated antibody against FLAG. The relative Imax for CDC37-nanoKAZ was normalized using the amount of bound protein.
Stable cell lines transfected with expression vectors for 3xFLAG-tagged DYRK family kinases and its mutants were lysed in ice-cold HENG buffer (50 mM HEPES-KOH, pH 7.9, 150 mM NaCl, 20 mM Na2MoO4, 2 mM EDTA, 5% Glycerol, 0.5% TritonX-100) containing protease inhibitor cocktail (Nacalai Tesque) on ice. […] The wells were wash three times with ice-cold HENG buffer and then a luminescence assay was performed.
(§1) The luminescence activity of the cell lysates was determined using a Centro LB 960 Microplate Luminometer (Berthold Technologies, Bad Wildbad, Germany). A reaction mixture containing bis-coelenterazine (final concentration of 0.1–1 μg/100 μL) in PBS containing 0.02% Tween20 and 20 mM EDTA was injected. The luminescence intensity was recorded at 0.1 s intervals for 10 s or 10 min. The maximum luminescence intensity (Imax), represented in relative luminescence units (rlu), was used in the study.
After measuring the luminescence intensities, the wells were washed three times with HENG buffer, and incubated with HRP-conjugated anti-FLAG antibody diluted with PBS containing […] and 2% fetal bovine serum at 37 °C for one hour. After extensive washing, […] Super Sensitive One Component HRP Microwell Substrate (SurModics, Eden Prairie, MN, USA) was added into the well and the reaction was stopped with sulfuric acid. Absorbance at 450 nm was measured with ARVO X5 (PerkinElmer). The relative amount of protein bound on the well was estimated from the absorbance.
In Supporting Figure S1a, the values of Imax are shown in kinetics plots. In Figs 2c,e, 3c, S1d, S3, and S4, the relative luminescence intensities are shown as the fold-change in the Imax values of the samples relative to Imax with EGFP. In Figs 4, 5a,c and 6c, the relative luminescence intensities were normalized to the amount of the bound 3xFLAG-DYRK1A mutant and calculated as the fold-change relative to the value at 0 μM of the compounds.
Small molecules in our original synthetic chemical library, including unpublished small molecule inhibitors of DYRK1A and its structural derivatives (data not shown), were added to the 96-well plates containing the transfected cells at a final concentration of 4 μM. The cells were then processed as described above.

[2] = target: DYRK1A (Homo sapiens, UniProt Q13627); assay: In vitro kinase assay, substrate DYRKtide-F; format: biochemical; set-up: full-length human recombinant kinases were expressed using a baculovirus expression system as amino-terminal GST-fusion proteins; GST (N); purchased Carna Biosciences; host or cells: baculovirus expression system; details: for inhibitory activity against recombinant DYRK1A: result in words, Fig. 6b
Excerpt: Detailed information on the assay conditions is available on the website of Carna Biosciences (http://www.carnabio.com/english/index.html; Kobe, Japan). In brief, full-length human recombinant kinases were expressed using a baculovirus expression system as amino-terminal GST-fusion proteins, and purified by glutathione-Sepharose chromatography. The GenBank accession numbers of DYRK1A, DYRK1B, DYRK2, and DYRK3 were NP_001387.2, NP_004705.1, NP_003574.1, and NP_003573.2. […] For each compound, a DMSO solution was diluted in assay buffer to yield a final concentration of 1% DMSO. After incubation for one hour at room temperature, substrate phosphorylation was analyzed by electrophoretic separation of the substrate and products using a Caliper LC3000 platform (Caliper Life Sciences, Mountain View, CA, USA). The phosphorylated product (P)/(P + substrate) ratio was calculated at each concentration of each small molecule and the percent inhibition was expressed relative to a control assay in the absence of the small molecule. […] The IC50 of each compound was calculated by interpolation on a log-concentration-response curve fitted with a four-parameter logistic equation.

[3] = test system: CDC37-nanoKAZ; assay: Luminescence activity of CDC37-nanoKAZ in total cell lysates; format: cell-based; details: counter-test, same concentrations as interaction assay
Experimental: as §1
Targeting the DYRK1A/CDC37 complex
(a-d) Luminescence intensities of total cell lysates of cells treated with the indicated […]
Figure 4. Luminescence intensities at each concentration are shown as fold-changes relative to that at 0 nM. Points are means ± SD (n = 3).
(1 picture or pasted object on this page, not shown here)
Luminescence intensities of total cell lysates of cells treated with the indicated concentrations of CaNDY, as also used in Figure 5c. Luminescence intensities at each concentration are shown as fold-changes to that at 0 nM. Points are means ± SD (n = 3).

[4] = target: T2, 3xFLAG-DYRK1A (Homo sapiens, UniProt Q13627); assay: Western blot of 3xFLAG-DYRK1A level in transfected 293T cells; format: cell-based
T2 construct: F2A peptide linking to EGFP (2A skipping releases EGFP; a 2A remnant may stay on DYRK1A) (C); expressed in transfected cells; host or cells: 293T cells, transient
Experimental: To investigate whether DYRK1A is a client kinase of the CDC37/HSP90 system, we used a HSP90 inhibitor, ganetespib. 293T cells were transiently transfected with an expression vector of 3xFLAG-tagged DYRK1A (3xFLAG-DYRK1A). At 24 h after transfection, the cells were treated with ganetespib for the indicated time (0–8 h). Total cell lysates were collected and subjected to SDS-PAGE followed by Western blot analysis.
Figure 1 Ganetespib, a HSP90 inhibitor, decreases the DYRK1A protein level. 293T cells were transiently transfected with an expression vector for 3xFLAG-DYRK1A. At 24 h after transfection, the cells were treated with ganetespib (100 nM) and collected 0 and 8 h after treatment. Total cell lysates were subjected to SDS-PAGE followed by Western blot analysis using antibodies against FLAG and GAPDH. In the control group (DMSO), expression of 3xFLAG-DYRK1A increased at 8 h compared to 0 h, and ganetespib suppressed this increase of 3xFLAG-DYRK1A.
(§2) Western blot analysis was performed using the antibodies described above. In brief, total cell lysates were separated by SDS-PAGE (5–20% gels; ATTO, Tokyo, Japan) under reducing conditions and then transferred to a PVDF membrane (PALL, SP, Brazil). Antibody reactions were performed with Can Get Signal® Immunoreaction Enhancer Solution (Toyobo). Peroxidase activities on the membrane were visualized with ECL Western Blotting Detection Reagents (GE Healthcare) or ImmunoStar® LD (Wako Pure Chemical Industries, Osaka, Japan), and a ChemiDoc^TM MP Imaging System (Bio-Rad, Hercules, CA, USA).

[5] = target: T3, endogenous DYRK1A (Homo sapiens, UniProt Q13627); assay: Western blot of endogenous DYRK1A protein in HEK293 cells; format: cell-based; details: ganetespib 100 nM, 4 days
T3 construct: endogenous in cells; host or cells: HEK293
Experimental: We investigated whether CaNDY destabilizes DYRK1A as ganetespib does. […] Next we examined whether CaNDY decreased endogenous DYRK1A protein. HEK293 cells were cultured for 0–4 days with CaNDY (2 μM) and then subjected to SDS-PAGE followed by Western blot analysis using antibodies against DYRK1A and GAPDH. […] The treated cells were also subjected to reverse transcription followed by quantitative PCR analysis.
as §2

O=C1NC(=S)S/C1=C\c1ccc2[nH]ccc2c1 [RD0440]
antagonism of the CDC37-nanoKAZ interaction [1]: did not antagonize the interaction | inhibitory activity against recombinant DYRK1A [2]: weak inhibitory activity

N=C1NC(=O)C(=Cc2ccc3c(c2)OCO3)S1 [PD0439]
EC50 [1]: 573 nM | IC50 ([2]; 25 μM ATP, 1 μM DYRKtide-F, read-out: IC50, substrate phosphorylation): 16.7 nM

[H]/N=C1/NC(=O)C(=Cc2ccc3[nH]ccc3c2)S1 [PD0442]
antagonism of the CDC37-nanoKAZ interaction [1]: did not antagonize the interaction | inhibitory activity against recombinant DYRK1A [2]: weak inhibitory activity

COc1ccc2c(c1)[nH]c1c(C)nccc12 [harmine]
inhibition of luminescence activity of CDC37-nanoKAZ [3]: did not inhibit

CC[C@H](C)[C@H](NC(=O)[C@H]([C@@H](C)CC)N(C)C(C)=O)C(=O)N[C@H](C(=O)N[C@@H](CC(C)C)C(=O)[C@@]1(C)CO1)[C@@H](C)O [epoxomicin]
effect on CaNDY-mediated degradation of 3xFLAG-DYRK1A ([4]; 2 µM epoxomicin pre-treatment 1 h, then CaNDY 2 µM 8 h): partially prevented

CC(C)c1cc(-c2n[nH]c(=O)n2-c2ccc3c(ccn3C)c2)c(O)cc1O [ganetespib, reference compound]
inhibition of luminescence activity of CDC37-nanoKAZ [3]: did not inhibit | accumulation of endogenous DYRK1A [5]: prevented it | EC50 [1]: 14 nM | DYRK1A protein level ([4]; ganetespib 100 nM, 8 h, compared with DMSO): decreased the DYRK1A level

CCN1/C(=C/C(C)=O)Sc2ccc(O)cc21 [INDY]
inhibition of luminescence activity of CDC37-nanoKAZ [3]: did not inhibit
